Where two headings read alike, the source gives them in different places. Bridge positions count the residues as written; N and C are the ends. Square brackets hold non-standard residues; d marks the D form. Peptide text beside a SMILES is read from it. * marks the point of attachment. Bip(4'-COOH) = N[C@@H](Cc1ccc(-c2ccc(C(=O)O)cc2)cc1)C(=O)O; Bip(4'-NHAc) = CC(=O)Nc1ccc(-c2ccc(C[C@H](N)C(=O)O)cc2)cc1; Phe(3-CF3) = N[C@@H](Cc1cccc(C(F)(F)F)c1)C(=O)O; Ala(morpholin-4-yl) = N[C@@H](CN1CCOCC1)C(=O)O; Phe(4-COOH) = N[C@@H](Cc1ccc(C(=O)O)cc1)C(=O)O; Bip = N[C@@H](Cc1ccc(-c2ccccc2)cc1)C(=O)O; Phe(2-Cl) = N[C@@H](Cc1ccccc1Cl)C(=O)O; Phe(3-Me) = Cc1cccc(C[C@H](N)C(=O)O)c1; Phe(2-F) = N[C@@H](Cc1ccccc1F)C(=O)O; Val(3-OH) = CC(C)(O)[C@H](N)C(=O)O; hArg = N=C(N)NCCCC[C@H](N)C(=O)O; hPhe = N[C@@H](CCc1ccccc1)C(=O)O; Cha = N[C@@H](CC1CCCCC1)C(=O)O; Carboxymethyl = O=C(O)C*; NMeA = CN[C@@H](C)C(=O)O; Nle = CCCC[C@H](N)C(=O)O; Orn = NCCC[C@H](N)C(=O)O; Dab = NCC[C@H](N)C(=O)O

Experimental findings from patent US20240409585A1, “MACROCYCLIC IMMUNOMODULATORS” (priority 2021, published 2024) are described below.

In the assay the target is T1, Alexa fluor-647 labeled human PD-L1-Ig binding to Jurkat cell line over-expressing human PD-1 (Homo sapiens, UniProt Q15116).
T1 construct: expressed in transfected cells; host or cells: Jurkat
As to the kind of experiment: Jurkat-PD-1 Cell Binding High-Content Screening Assay (CBA): Method 3 (Alexa fluor-647 labeled PD-L1-Ig). Particulars: Jurkat-PD-1 cells, Alexa fluor-647 labeled PD-L1-Ig 177 nM. Put shortly: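 Jurkat cells over-expressing human PD-1 in RPMI/10% FCS were preincubated 2 h at 37 °C with compound, then exposed 1 h to Alexa fluor-647 labeled human PD-L1-Ig (177 nM final). Cells fixed in 4% paraformaldehyde with Hoechst 33342 and binding quantified by high-content imaging.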

Where [1] appears, read: head μM, read-out: CBA Method 3 μM.

T1 sequence (Q15116 25-288): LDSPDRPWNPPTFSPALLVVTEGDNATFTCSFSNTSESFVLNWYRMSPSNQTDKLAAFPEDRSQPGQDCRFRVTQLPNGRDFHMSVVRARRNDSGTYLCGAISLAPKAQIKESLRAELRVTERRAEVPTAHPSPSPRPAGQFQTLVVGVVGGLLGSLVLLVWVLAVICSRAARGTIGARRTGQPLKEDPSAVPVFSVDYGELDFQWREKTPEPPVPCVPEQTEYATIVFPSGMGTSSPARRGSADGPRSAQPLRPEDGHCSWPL

Turning to `CC(=O)Nc1ccc(-c2ccc(C[C@@H]3NC(=O)[C@H](Cc4cccc(C(F)(F)F)c4)NC(=O)[C@H](CC(=O)O)NC(=O)[C@H](Cc4ccc(C(=O)O)cc4)NC(=O)[C@H](CN4CCOCC4)NC(=O)CSC[C@@H](C(=O)N[C@@H](CCN)C(N)=O)NC(=O)[C@H](CC(N)=O)NC(=O)[C@H](C(C)C)NC(=O)[C@H](CC4CCCCC4)NC(=O)[C@H](CCN)NC(=O)[C@@H](CC(C)C)NC(=O)[C@H](C)N(C)C(=O)[C@H](CCCN)NC(=O)[C@H](Cc4ccc(-c5ccccc5)cc4)NC3=O)cc2)cc1` [Example 5111] ({CH2CO}-[Ala(morpholin-4-yl)][Phe(4-COOH)]D[Phe(3-CF3)][Bip(4'-NHAc)][Bip][Orn][NMeA][dL][Dab][Cha]VNC[Dab]-NH2; thioether N-14), where the note is “nM, read-out: CBA Method 3”, the IC50 stood at 4.7 nM. Regarding `Cc1cccc(C[C@@H]2NC(=O)[C@H](CC(=O)O)NC(=O)[C@H](Cc3ccc(-c4ccc(C(=O)O)cc4)cc3)NC(=O)[C@H]([C@@H](C)O)NC(=O)CSC[C@@H](C(=O)N[C@@H](CCN)C(N)=O)NC(=O)[C@H](Cc3cnc[nH]3)NC(=O)[C@H](C(C)(C)O)NC(=O)[C@H](CC3CCCCC3)NC(=O)[C@H](CCN)NC(=O)[C@@H](CC(C)C)NC(=O)[C@H](C)N(C)C(=O)[C@H](Cc3ccc(C(=O)O)cc3)NC(=O)[C@H](Cc3ccc(-c4ccccc4)cc3)NC(=O)[C@H](Cc3ccc(-c4ccc(C(=O)O)cc4)cc3)NC2=O)c1` [Example 5131] ({CH2CO}-T[Bip(4'-COOH)]D[Phe(3-Me)][Bip(4'-COOH)][Bip][Phe(4-COOH)][NMeA][dL][Dab][Cha][Val(3-OH)]HC[Dab]-NH2; thioether N-14), the IC50 under setting [1] came out at 190 nM. With `CC(C)C[C@H]1NC(=O)[C@H](C)N(C)C(=O)[C@H](Cc2ccc(C(=O)O)cc2)NC(=O)[C@H](Cc2ccc(-c3ccccc3)cc2)NC(=O)[C@H](CCc2ccccc2)NC(=O)[C@H](Cc2cccc(C(F)(F)F)c2)NC(=O)[C@H](CC(=O)O)NC(=O)[C@H](Cc2ccc(C(=O)O)cc2)NC(=O)[C@H](CCCCNC(=N)N)NC(=O)CSC[C@@H](C(=O)N[C@@H](CCN)C(N)=O)NC(=O)[C@H](CO)NC(=O)[C@H](C(C)(C)O)NC(=O)[C@H](CC2CCCCC2)NC(=O)[C@H](CCN)NC1=O` [Example 5252] ({CH2CO}-[hArg][Phe(4-COOH)]D[Phe(3-CF3)][hPhe][Bip][Phe(4-COOH)][NMeA][dL][Dab][Cha][Val(3-OH)]SC[Dab]-NH2; thioether N-14), the IC50 (nM, read-out: CBA Method 3) was 1.2 nM. Take `CCCC[C@@H]1NC(=O)CSC[C@@H](C(=O)N[C@@H](CCN)C(N)=O)NC(=O)[C@H](CCCN)NC(=O)[C@H](C(C)C)NC(=O)[C@H](CC2CCCCC2)NC(=O)[C@H](CCN)NC(=O)[C@@H](CC(C)C)NC(=O)[C@H](C)N(C)C(=O)[C@H](CCC(N)=O)NC(=O)[C@H](Cc2ccc(-c3ccccc3)cc2)NC(=O)[C@H](Cc2ccc(C(=O)O)cc2)NC(=O)[C@H](Cc2cccc(C)c2)NC(=O)[C@H](CC(=O)O)NC(=O)[C@H](Cc2ccc(OCC(=O)O)cc2)NC1=O` [Example 5175] ({CH2CO}-[Nle]Y(Carboxymethyl)D[Phe(3-Me)][Phe(4-COOH)][Bip]Q[NMeA][dL][Dab][Cha]V[Orn]C[Dab]-NH2; thioether N-14): under setting [1], the IC50 was 10 nM.

In the case of `Cc1cccc(C[C@@H]2NC(=O)[C@H](CC(=O)O)NC(=O)[C@H](Cc3ccc(OCC(=O)O)cc3)NC(=O)[C@H](Cc3ccccc3Cl)NC(=O)CSC[C@@H](C(=O)N[C@@H](CCN)C(N)=O)NC(=O)[C@H](CCCN)NC(=O)[C@H](C(C)C)NC(=O)[C@H](CC3CCCCC3)NC(=O)[C@H](CCN)NC(=O)[C@@H](CC(C)C)NC(=O)[C@H](C)N(C)C(=O)[C@H](CCC(N)=O)NC(=O)[C@H](Cc3ccc(-c4ccccc4)cc3)NC(=O)[C@H](Cc3ccc(C(=O)O)cc3)NC2=O)c1` [Example 5291] ({CH2CO}-[Phe(2-Cl)]Y(Carboxymethyl)D[Phe(3-Me)][Phe(4-COOH)][Bip]Q[NMeA][dL][Dab][Cha]V[Orn]C[Dab]-NH2; thioether N-14), the IC50 (nM, read-out: CBA Method 3) was 0.2 nM. On to `Cc1cccc(C[C@@H]2NC(=O)[C@H](CC(=O)O)NC(=O)[C@H](Cc3ccc(OCC(=O)O)cc3)NC(=O)[C@H](Cc3ccccc3F)NC(=O)CSC[C@@H](C(=O)N[C@@H](CCN)C(N)=O)NC(=O)[C@H](CCCN)NC(=O)[C@H](C(C)C)NC(=O)[C@H](CC3CCCCC3)NC(=O)[C@H](CCN)NC(=O)[C@@H](CC(C)C)NC(=O)[C@H](C)N(C)C(=O)[C@H](CCC(N)=O)NC(=O)[C@H](Cc3ccc(-c4ccccc4)cc3)NC(=O)[C@H](Cc3ccc(C(=O)O)cc3)NC2=O)c1` [Example 5293] ({CH2CO}-[Phe(2-F)]Y(Carboxymethyl)D[Phe(3-Me)][Phe(4-COOH)][Bip]Q[NMeA][dL][Dab][Cha]V[Orn]C[Dab]-NH2; thioether N-14), for which, under setting [1], the IC50 worked out at 60 nM. In the case of `CC(C)C[C@H]1NC(=O)[C@H](C)N(C)C(=O)[C@H](CCC(N)=O)NC(=O)[C@H](Cc2ccc(-c3ccccc3)cc2)NC(=O)[C@H](CCc2ccccc2)NC(=O)[C@H](Cc2cccc(C(F)(F)F)c2)NC(=O)[C@H](CC(=O)O)NC(=O)[C@H](Cc2ccc(O)cc2)NC(=O)[C@H](CN2CCOCC2)NC(=O)CSC[C@@H](C(=O)N[C@@H](CCN)C(N)=O)NC(=O)[C@H](CCC(N)=O)NC(=O)[C@H](C(C)C)NC(=O)[C@H](CC2CCCCC2)NC(=O)[C@H](CCN)NC1=O` [Example 5240] ({CH2CO}-[Ala(morpholin-4-yl)]YD[Phe(3-CF3)][hPhe][Bip]Q[NMeA][dL][Dab][Cha]VQC[Dab]-NH2; thioether N-14), the IC50 (nM, read-out: CBA Method 3) amounted to 4.4 nM. Take `CC(=O)Nc1ccc(-c2ccc(C[C@@H]3NC(=O)[C@H](Cc4cccc(C)c4)NC(=O)[C@H](CC(=O)O)NC(=O)[C@H](Cc4ccc(C(=O)O)cc4)NC(=O)[C@H](CC4CCCCC4)NC(=O)CSC[C@@H](C(=O)N[C@@H](CCN)C(N)=O)NC(=O)[C@H](CCC(=O)O)NC(=O)[C@H](C(C)C)NC(=O)[C@H](CC4CCCCC4)NC(=O)[C@H](CCN)NC(=O)[C@@H](CC(C)C)NC(=O)[C@H](C)N(C)C(=O)[C@H](CCC(N)=O)NC(=O)[C@H](Cc4ccc(-c5ccccc5)cc4)NC3=O)cc2)cc1` [Example 5203] ({CH2CO}-[Cha][Phe(4-COOH)]D[Phe(3-Me)][Bip(4'-NHAc)][Bip]Q[NMeA][dL][Dab][Cha]VEC[Dab]-NH2; thioether N-14): under setting [1], the IC50 is 10 nM. Regarding `CC(=O)Nc1ccc(-c2ccc(C[C@@H]3NC(=O)[C@H](Cc4cccc(C)c4)NC(=O)[C@H](CC(=O)O)NC(=O)[C@H](Cc4ccc(-c5ccc(C(=O)O)cc5)cc4)NC(=O)[C@H]([C@@H](C)O)NC(=O)CSC[C@@H](C(=O)N[C@@H](CCN)C(N)=O)NC(=O)[C@H](Cc4cnc[nH]4)NC(=O)[C@H](C(C)(C)O)NC(=O)[C@H](CC4CCCCC4)NC(=O)[C@H](CCN)NC(=O)[C@@H](CC(C)C)NC(=O)[C@H](C)N(C)C(=O)[C@H](Cc4ccc(OCC(=O)O)cc4)NC(=O)[C@H](Cc4ccc(-c5ccccc5)cc4)NC3=O)cc2)cc1` [Example 5132] ({CH2CO}-T[Bip(4'-COOH)]D[Phe(3-Me)][Bip(4'-NHAc)][Bip]Y(Carboxymethyl)[NMeA][dL][Dab][Cha][Val(3-OH)]HC[Dab]-NH2; thioether N-14), under setting [1], the IC50 is 20 nM. Still for that read-out and setting: the result for `Cc1cccc(C[C@@H]2NC(=O)[C@H](CC(=O)O)NC(=O)[C@H](Cc3ccc(OCC(=O)O)cc3)NC(=O)[C@H](CC3CCCCC3)NC(=O)CSC[C@@H](C(=O)N[C@@H](CCN)C(N)=O)NC(=O)[C@H](CCC(N)=O)NC(=O)[C@H](C(C)C)NC(=O)[C@H](CC3CCCCC3)NC(=O)[C@H](CCN)NC(=O)[C@@H](CC(C)C)NC(=O)[C@H](C)N(C)C(=O)[C@H](CCC(N)=O)NC(=O)[C@H](Cc3ccc(-c4ccccc4)cc3)NC(=O)[C@H](CCc3ccccc3)NC2=O)c1` [Example 5222] ({CH2CO}-[Cha]Y(Carboxymethyl)D[Phe(3-Me)][hPhe][Bip]Q[NMeA][dL][Dab][Cha]VQC[Dab]-NH2; thioether N-14) reads 20 nM.

For the compound `CC(C)C[C@H]1NC(=O)[C@H](C)N(C)C(=O)[C@H](Cc2ccc(OCC(=O)O)cc2)NC(=O)[C@H](Cc2ccc(-c3ccccc3)cc2)NC(=O)[C@H](Cn2cc(C3CC3)nn2)NC(=O)[C@H](Cc2cccc(C(F)(F)F)c2)NC(=O)[C@H](CC(=O)O)NC(=O)[C@H](Cc2ccc(C(=O)O)cc2)NC(=O)[C@H](CN2CCOCC2)NC(=O)CSC[C@@H](C(=O)N[C@@H](CCN)C(N)=O)NC(=O)[C@H](CCC(N)=O)NC(=O)[C@H](C(C)C)NC(=O)[C@H](CC2CCCCC2)NC(=O)[C@H](CCN)NC1=O` [Example 5250], the IC50 (nM, read-out: CBA Method 3) turned out to be 1.4 nM. With `Cc1cccc(C[C@@H]2NC(=O)CSC[C@@H](C(=O)N[C@@H](CCN)C(N)=O)NC(=O)[C@H](CCCN)NC(=O)[C@H](C(C)C)NC(=O)[C@H](CC3CCCCC3)NC(=O)[C@H](CCN)NC(=O)[C@@H](CC(C)C)NC(=O)[C@H](C)N(C)C(=O)[C@H](CCC(N)=O)NC(=O)[C@H](Cc3ccc(-c4ccccc4)cc3)NC(=O)[C@H](Cc3ccc(C(=O)O)cc3)NC(=O)[C@H](Cc3cccc(C)c3)NC(=O)[C@H](CC(=O)O)NC(=O)[C@H](Cc3ccc(OCC(=O)O)cc3)NC2=O)c1` [Example 5273] ({CH2CO}-[Phe(3-Me)]Y(Carboxymethyl)D[Phe(3-Me)][Phe(4-COOH)][Bip]Q[NMeA][dL][Dab][Cha]V[Orn]C[Dab]-NH2; thioether N-14), where the note is “nM, read-out: CBA Method 3”, the IC50 was determined as 0.5 nM.
